One assay addresses Large T antigen (Simian virus 40, UniProt P03070). It is filed as functional, Betapolyomavirus macacae.
In assay [1] the target is Intestinal-type alkaline phosphatase (Homo sapiens, UniProt P09923). Nature of the assay: activation of human intestinal alkaline phosphatase – biochemical, dose response (AID 488873). In kind it is functional.
In assay [2] the target is Intestinal-type alkaline phosphatase (Mus musculus, UniProt P24822). Nature of the assay: mouse intestinal alkaline phosphatase activators, dose response, biochemical, luminescence, uHTS hits (AID 488783). In kind it is functional.
Assay [3] concerns the target T1, Alkaline phosphatase, tissue-nonspecific isozyme (Homo sapiens, UniProt P05186).
T1 sequence (P05186 whole entry): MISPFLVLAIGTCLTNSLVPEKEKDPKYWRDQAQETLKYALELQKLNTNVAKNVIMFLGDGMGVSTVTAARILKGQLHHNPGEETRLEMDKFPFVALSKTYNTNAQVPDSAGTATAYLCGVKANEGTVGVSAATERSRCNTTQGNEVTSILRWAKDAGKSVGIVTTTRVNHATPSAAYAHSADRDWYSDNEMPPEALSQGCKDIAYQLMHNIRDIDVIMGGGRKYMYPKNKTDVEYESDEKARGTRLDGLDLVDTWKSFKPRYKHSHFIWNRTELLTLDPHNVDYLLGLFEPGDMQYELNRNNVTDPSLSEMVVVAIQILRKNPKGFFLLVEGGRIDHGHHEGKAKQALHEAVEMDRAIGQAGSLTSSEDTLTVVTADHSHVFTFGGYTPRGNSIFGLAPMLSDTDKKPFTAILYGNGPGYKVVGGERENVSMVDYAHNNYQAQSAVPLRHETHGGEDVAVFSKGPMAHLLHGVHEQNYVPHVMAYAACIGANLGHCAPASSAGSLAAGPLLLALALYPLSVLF
Nature of the assay: activation of tissue-nonspecific alkaline phosphatase – biochemical, TNAP isozyme, mouse IAP uHTS hits, selectivity assay for mouse IAP activator project, dose response (AID 488880). In kind it is functional.

Assay [4] has as its target T2, Kappa-type opioid receptor (Homo sapiens, UniProt P41145). Nature of the assay: SAR analysis of small molecule antagonists of the kappa opioid receptor via a luminescent beta-arrestin assay - Set 4. [Related pubchem assays (depositor defined):AID1777, AID1778, AID1785, AID1786, AID1966, AID2133, AID2136, AID2285]. In kind it is functional.
Assay [5] deals with T2, Kappa-type opioid receptor. Nature of the assay: SAR analysis of small molecule antagonists of the kappa opioid receptor via a luminescent beta-arrestin assay - Set 5. [Related pubchem assays (depositor defined):AID1778, AID1785]. In kind it is functional.
Assay [6] can be described thus: viability of uninfected HEp-2 cells – cell-based, HTS, cytotoxicity control for RSV inhibitor project, dose response (AID 2410). In kind it is functional. The conditions noted are these: human respiratory syncytial virus.
Assay [7] has as its target T3, Tyrosine-protein phosphatase non-receptor type 22 (Homo sapiens, UniProt Q9Y2R2).
T3 sequence (Q9Y2R2 whole entry): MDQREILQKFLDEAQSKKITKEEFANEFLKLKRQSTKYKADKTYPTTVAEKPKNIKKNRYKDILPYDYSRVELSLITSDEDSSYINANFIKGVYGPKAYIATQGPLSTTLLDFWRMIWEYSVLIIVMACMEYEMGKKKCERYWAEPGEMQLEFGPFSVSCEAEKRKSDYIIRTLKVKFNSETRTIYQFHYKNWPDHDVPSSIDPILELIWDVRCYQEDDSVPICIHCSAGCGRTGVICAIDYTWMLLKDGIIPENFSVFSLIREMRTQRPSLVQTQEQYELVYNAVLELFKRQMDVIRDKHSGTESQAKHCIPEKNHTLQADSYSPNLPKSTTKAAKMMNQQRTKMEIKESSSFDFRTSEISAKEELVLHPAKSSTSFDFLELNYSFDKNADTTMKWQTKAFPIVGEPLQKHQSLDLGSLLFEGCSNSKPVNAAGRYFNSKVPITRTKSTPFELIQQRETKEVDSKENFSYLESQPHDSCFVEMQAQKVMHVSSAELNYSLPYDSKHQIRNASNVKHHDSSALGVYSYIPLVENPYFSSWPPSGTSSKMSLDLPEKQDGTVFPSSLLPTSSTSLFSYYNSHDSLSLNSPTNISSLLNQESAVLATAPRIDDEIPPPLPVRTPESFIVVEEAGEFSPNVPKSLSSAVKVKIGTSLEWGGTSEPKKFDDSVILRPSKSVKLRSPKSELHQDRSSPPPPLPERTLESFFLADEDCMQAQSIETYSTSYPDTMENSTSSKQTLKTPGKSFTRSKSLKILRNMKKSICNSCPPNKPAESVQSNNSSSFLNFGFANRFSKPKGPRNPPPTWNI
Nature of the assay: LYP1 Fluorescent Assay using OMFP substrate for In Vitro dose response studies. [Related pubchem assays (depositor defined):AID1779, AID1784, AID435024].

Assay [8] concerns the target T4, Tyrosine-protein phosphatase non-receptor type 7 (Homo sapiens, UniProt P35236).
T4 sequence (P35236 whole entry): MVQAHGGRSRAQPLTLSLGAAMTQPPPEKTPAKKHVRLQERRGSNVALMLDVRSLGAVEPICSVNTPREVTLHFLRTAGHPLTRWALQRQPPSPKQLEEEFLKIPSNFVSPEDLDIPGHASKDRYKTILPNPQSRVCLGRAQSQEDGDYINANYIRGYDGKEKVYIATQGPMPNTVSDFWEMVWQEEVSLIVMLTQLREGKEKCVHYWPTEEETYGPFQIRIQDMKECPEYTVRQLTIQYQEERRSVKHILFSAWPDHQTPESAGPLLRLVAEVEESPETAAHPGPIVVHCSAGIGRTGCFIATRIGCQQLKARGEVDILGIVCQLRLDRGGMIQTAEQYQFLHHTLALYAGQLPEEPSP
In kind it is functional.

The target of assay [9] is T5, Voltage-gated N-type calcium channel alpha-1B subunit/Amyloid beta A4 precursor protein-binding family A member 1 (Homo sapiens, UniProt Q00975+Q02410). It is filed as protein assay.
The target of assay [10] is T4, Tyrosine-protein phosphatase non-receptor type 7. The experiment in a line: HTS HePTP Fluorescent Assay using OMFP substrate for In Vitro dose response studies. [Related pubchem assays (depositor defined):AID1059, AID1077, AID1784, AID2068, AID2085, AID435032, AID521]. It is filed as functional.
Assay [11] deals with T5, Voltage-gated N-type calcium channel alpha-1B subunit/Amyloid beta A4 precursor protein-binding family A member 1. It is filed as protein assay. This is another data set of the same source.
Assay [12] deals with T3, Tyrosine-protein phosphatase non-receptor type 22. Nature of the assay: PTPN22 lymphoid phosphatase activity blockers – biochemical, fluorescence intensity, uHTS (AID 1779).
For assay [13] the target is unchanged. Nature of the assay: SAR LYP1 Fluorescent Assay using pCAP substrate for In Vitro dose response studies - Set 2. [Related pubchem assays (depositor defined):AID1779, AID1784, AID2135, AID449727]. In kind it is functional.
The target in assay [14] is Tyrosine-protein phosphatase non-receptor type 12 (Homo sapiens, UniProt Q05209). The experiment in a line: SAR Selectivity Analysis of small molecule inhibitors of PEST using pCAP in a fluorescence assay. [Related pubchem assays (depositor defined):AID1779, AID1784, AID2135]. In kind it is functional.
Assay [15] has as its target T3, Tyrosine-protein phosphatase non-receptor type 22. It is filed as functional.
Assay [16] shares this target. Nature of the assay: SAR LYP1 Fluorescent Assay using OMFP substrate for In Vitro dose response studies - Set 3. [Related pubchem assays (depositor defined):AID1779, AID1784, AID2140, AID2686]. In kind it is functional.
Assay [17] deals with T4, Tyrosine-protein phosphatase non-receptor type 7. Nature of the assay: inhibition of hematopoietic tyrosine phosphatase HePTP – biochemical, set 2, SAR follow-up (AID 449736). In kind it is functional.
Assay [18] addresses T3, Tyrosine-protein phosphatase non-receptor type 22. Nature of the assay: inhibition of lymphoid tyrosine phosphatase LYP – biochemical, pCAP fluorogenic substrate, fluorescence, set 3, SAR follow-up (AID 449727). In kind it is functional.
Assay [19] shares this target. In kind it is functional. This is another data set of the same source.
Assay [20] shares this target. Nature of the assay: PubChem AID 2135.
Assay [21] shares this target. The experiment in a line: PubChem AID 2140.
The target is the same in assay [22]. Nature of the assay: SAR LYP1 Fluorescent Assay using OMFP substrate for In Vitro dose response studies - Set 2. [Related pubchem assays (depositor defined):AID1779, AID1784, AID2140, AID449726, AID488869]. It is filed as functional.
In assay [23] the target is T6, Mu-type opioid receptor (Homo sapiens, UniProt P35372). Nature of the assay: mu opioid receptor activators, image-based, SAR follow-up (AID 2352). In kind it is functional.
Assay [24] deals with T7, Delta-type opioid receptor (Homo sapiens, UniProt P41143). Nature of the assay: DOR agonists, SAR follow-up, image-based (AID 2370). In kind it is functional.
For assay [25], the target named is T2, Kappa-type opioid receptor. Nature of the assay: kappa opioid receptor blockers, image-based, SAR follow-up (AID 2348). In kind it is functional.
For assay [26], the target named is T6, Mu-type opioid receptor. Nature of the assay: mu opioid receptor blockers – image-based, SAR follow-up (AID 2420).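 Also: compounds added before stimulation of receptor with agonist DAMGO.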 In kind it is functional.
The target of assay [27] is T2, Kappa-type opioid receptor. Nature of the assay: kappa opioid receptor activation potency – imaging, image-based, SAR follow-up (AID 2359). In kind it is functional.
The target of assay [28] is T7, Delta-type opioid receptor. The experiment in a line: delta opioid receptor blockers – image-based, SAR follow-up (AID 2357). In kind it is functional.
The target in assay [29] is T2, Kappa-type opioid receptor. The experiment in a line: kappa opioid receptor blockers, cell-based, luminescence, beta-arrestin, SAR follow-up (AID 2285). In kind it is functional.

Active and inactive are the calls of the source.

T2 sequence (P41145 whole entry): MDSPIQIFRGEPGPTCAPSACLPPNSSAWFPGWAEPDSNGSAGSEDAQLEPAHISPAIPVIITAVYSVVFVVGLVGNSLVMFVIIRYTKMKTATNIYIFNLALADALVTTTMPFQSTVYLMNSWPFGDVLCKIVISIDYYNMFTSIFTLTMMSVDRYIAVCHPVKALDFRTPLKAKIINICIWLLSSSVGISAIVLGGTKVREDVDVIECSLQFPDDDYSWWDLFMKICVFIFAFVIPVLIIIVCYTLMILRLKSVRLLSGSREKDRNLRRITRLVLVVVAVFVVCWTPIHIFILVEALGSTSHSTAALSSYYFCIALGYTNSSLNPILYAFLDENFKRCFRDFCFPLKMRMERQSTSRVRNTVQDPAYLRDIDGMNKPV
T5 sequence (Q00975 whole entry): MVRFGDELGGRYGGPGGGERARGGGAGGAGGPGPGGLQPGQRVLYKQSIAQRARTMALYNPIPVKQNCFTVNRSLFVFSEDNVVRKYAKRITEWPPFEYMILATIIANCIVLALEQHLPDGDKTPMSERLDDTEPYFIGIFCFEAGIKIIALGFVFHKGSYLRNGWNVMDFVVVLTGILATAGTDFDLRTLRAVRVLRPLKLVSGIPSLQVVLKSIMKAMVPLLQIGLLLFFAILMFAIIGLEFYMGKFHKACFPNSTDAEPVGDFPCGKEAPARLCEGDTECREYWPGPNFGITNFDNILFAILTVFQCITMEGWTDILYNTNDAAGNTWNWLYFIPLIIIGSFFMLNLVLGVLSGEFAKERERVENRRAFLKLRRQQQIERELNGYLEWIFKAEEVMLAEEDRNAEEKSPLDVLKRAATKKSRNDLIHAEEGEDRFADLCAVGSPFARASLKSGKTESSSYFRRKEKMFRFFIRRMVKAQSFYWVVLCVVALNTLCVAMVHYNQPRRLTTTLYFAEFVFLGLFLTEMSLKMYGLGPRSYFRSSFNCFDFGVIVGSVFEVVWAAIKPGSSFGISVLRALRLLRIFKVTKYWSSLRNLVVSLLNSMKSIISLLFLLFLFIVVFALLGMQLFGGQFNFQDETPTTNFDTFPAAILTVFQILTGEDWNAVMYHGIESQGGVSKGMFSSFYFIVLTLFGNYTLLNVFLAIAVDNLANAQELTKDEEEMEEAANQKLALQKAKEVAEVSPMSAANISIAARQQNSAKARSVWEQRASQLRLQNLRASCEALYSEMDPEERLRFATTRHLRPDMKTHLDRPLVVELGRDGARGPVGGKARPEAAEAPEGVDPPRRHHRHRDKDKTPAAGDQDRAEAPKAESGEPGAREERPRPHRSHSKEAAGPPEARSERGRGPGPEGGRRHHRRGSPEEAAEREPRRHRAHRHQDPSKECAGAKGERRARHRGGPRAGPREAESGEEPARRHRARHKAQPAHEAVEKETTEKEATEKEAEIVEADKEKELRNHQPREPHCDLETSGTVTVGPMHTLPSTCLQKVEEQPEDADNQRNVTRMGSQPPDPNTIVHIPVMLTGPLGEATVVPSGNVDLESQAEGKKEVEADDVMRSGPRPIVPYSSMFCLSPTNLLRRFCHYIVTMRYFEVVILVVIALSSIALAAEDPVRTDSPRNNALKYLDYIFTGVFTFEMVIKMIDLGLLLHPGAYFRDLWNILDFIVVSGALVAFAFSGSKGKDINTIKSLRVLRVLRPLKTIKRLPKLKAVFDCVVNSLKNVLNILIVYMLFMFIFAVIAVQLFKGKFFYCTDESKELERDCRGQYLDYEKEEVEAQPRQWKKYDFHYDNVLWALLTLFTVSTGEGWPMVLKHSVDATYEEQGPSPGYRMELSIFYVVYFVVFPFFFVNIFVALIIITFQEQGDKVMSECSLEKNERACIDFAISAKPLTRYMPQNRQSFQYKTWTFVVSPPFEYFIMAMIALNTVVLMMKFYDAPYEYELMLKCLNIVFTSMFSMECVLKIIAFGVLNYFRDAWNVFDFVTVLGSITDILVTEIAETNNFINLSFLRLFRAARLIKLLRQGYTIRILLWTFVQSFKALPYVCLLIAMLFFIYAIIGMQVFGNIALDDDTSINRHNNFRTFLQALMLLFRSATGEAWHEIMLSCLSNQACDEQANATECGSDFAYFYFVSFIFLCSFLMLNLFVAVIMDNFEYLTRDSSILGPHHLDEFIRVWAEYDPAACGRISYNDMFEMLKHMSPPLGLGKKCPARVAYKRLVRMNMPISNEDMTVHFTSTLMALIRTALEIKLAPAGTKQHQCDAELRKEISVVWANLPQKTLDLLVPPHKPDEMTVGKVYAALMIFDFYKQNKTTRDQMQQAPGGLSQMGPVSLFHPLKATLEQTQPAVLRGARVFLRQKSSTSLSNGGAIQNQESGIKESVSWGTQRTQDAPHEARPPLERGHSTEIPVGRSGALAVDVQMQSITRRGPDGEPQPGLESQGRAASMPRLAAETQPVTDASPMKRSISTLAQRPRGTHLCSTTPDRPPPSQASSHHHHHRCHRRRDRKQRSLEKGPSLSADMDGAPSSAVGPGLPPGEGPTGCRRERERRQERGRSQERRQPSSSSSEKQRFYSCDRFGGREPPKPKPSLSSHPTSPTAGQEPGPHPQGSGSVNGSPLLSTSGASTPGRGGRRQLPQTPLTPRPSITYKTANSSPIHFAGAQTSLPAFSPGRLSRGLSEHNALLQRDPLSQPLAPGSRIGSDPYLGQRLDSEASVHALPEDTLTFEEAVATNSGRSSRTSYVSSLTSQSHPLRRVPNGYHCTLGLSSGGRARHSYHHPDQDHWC
T5 sequence (Q02410 whole entry): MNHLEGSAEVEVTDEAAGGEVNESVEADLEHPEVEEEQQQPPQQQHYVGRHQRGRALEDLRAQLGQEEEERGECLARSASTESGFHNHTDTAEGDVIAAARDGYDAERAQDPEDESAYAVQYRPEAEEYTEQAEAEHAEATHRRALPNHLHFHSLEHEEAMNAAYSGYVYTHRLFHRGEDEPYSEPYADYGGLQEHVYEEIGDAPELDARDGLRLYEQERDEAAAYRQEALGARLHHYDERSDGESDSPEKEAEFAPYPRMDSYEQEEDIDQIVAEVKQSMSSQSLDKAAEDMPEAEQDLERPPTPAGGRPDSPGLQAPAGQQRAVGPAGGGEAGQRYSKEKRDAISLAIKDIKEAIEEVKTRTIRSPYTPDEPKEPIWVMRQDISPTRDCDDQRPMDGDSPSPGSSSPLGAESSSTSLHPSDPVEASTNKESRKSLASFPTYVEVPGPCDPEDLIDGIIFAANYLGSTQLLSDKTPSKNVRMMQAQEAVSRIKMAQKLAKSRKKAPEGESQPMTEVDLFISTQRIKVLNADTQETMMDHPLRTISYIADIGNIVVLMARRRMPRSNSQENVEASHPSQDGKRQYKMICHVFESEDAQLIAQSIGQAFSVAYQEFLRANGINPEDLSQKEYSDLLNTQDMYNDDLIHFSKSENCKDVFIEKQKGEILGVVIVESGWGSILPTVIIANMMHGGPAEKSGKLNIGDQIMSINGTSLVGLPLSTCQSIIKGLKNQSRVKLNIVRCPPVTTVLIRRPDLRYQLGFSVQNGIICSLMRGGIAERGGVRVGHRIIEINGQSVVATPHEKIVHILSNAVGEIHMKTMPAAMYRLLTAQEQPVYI
T7 sequence (P41143 whole entry): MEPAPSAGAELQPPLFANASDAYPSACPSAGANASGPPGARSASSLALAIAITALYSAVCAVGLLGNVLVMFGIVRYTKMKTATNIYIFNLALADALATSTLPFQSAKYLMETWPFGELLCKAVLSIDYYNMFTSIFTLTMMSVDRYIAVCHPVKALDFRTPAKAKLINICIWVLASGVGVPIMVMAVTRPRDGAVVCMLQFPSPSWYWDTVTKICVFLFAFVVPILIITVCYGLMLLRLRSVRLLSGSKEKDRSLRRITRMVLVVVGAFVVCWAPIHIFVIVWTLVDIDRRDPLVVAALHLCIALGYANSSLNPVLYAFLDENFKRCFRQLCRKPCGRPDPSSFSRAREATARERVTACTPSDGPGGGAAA
T6 sequence (P35372 whole entry): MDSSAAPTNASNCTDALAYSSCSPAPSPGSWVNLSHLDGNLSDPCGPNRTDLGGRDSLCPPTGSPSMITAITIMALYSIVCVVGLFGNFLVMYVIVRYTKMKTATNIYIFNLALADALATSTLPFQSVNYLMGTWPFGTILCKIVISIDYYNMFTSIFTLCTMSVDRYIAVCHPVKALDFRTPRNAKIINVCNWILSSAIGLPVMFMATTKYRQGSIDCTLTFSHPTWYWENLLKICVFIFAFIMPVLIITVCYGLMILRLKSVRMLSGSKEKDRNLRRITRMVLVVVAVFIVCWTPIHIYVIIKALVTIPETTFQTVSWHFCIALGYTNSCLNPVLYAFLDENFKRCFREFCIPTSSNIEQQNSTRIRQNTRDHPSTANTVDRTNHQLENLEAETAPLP
Large T antigen, sequence (P03070 whole entry): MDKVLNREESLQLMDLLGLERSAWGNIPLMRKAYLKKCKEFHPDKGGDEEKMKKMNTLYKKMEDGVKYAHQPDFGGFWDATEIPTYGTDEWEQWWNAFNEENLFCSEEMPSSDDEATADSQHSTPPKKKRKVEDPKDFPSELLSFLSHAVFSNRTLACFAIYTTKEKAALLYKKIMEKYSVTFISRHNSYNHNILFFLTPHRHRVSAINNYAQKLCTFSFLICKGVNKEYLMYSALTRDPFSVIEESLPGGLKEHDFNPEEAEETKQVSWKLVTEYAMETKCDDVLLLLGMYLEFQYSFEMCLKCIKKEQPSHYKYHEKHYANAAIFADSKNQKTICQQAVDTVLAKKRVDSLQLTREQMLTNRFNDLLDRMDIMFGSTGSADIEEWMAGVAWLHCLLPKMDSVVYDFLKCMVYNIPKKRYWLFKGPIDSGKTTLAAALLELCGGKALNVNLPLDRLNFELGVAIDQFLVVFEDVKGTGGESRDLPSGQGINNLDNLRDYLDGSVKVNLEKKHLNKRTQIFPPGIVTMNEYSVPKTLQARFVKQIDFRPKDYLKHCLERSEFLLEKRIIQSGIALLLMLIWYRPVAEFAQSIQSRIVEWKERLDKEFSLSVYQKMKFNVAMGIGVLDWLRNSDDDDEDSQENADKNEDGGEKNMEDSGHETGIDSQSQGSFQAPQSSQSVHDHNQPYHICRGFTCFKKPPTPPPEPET

Regarding `N#C/C(=C\c1coc2ccc(O)cc2c1=O)C(=O)/N=c1\[nH]c2ccccc2s1`, the IC50 at Large T antigen is 15.9 µM (active). The EC50 in assay [1] was 81.5 µM (active); in assay [2], 85 µM (active); in [3] it was 88.5 µM (active).

Take `COc1ccc(CN(CCNC(=O)c2ccc(CNS(=O)(=O)Cc3ccccc3)cc2)C(C)C)cc1`: the figures for the IC50 in assay [4] and in assay [5] were 1.66 µM (active) and 0.452 µM (active), respectively.

As for `N#C/C(=C/c1ccc(OCc2ccc(C(=O)O)cc2)c(Br)c1)c1cccc(F)c1`, the cytotoxic concentration (CC50) in assay [6] is > 50 µM (active). Further, the IC50 in assay [7] was 18.8 µM (active); in [8] it was 14.6 µM (active); in assay [9] it was 13.7 µM (active); in assay [10], 8.8 µM (active); in [11], > 50 µM (inactive); in [12], 12.6 µM (active). Moreover, the IC50 in [13] was 1.6 µM (active); in assay [14], 1.65 µM (active); in assay [15] it was 2.61 µM (active); in [16] it was 20.5 µM (active); in [17], 0.481 µM (active); in [18] it was 4.86 µM (active). Moreover, the IC50 in [19] was 15.7 µM (active); in assay [20], 2.66 µM (active); in assay [21], 7.71 µM (active); in [22], 3.15 µM (active).

With `CCC(=NNc1ccnc2cc(Cl)ccc12)c1ccc(O)cc1`, the EC50 is 25.3 µM (inactive) on Mu-type opioid receptor [23], 30.7 µM (inactive) in assay [24] and > 32 µM (inactive) in assay [27]. Moreover, the IC50 is 3.62 µM (active) in assay [25], > 32 µM (inactive) at Mu-type opioid receptor [26], > 32 µM (inactive) in assay [28] and 3.54 µM (active) in assay [29].

These data come from ChEMBL document CHEMBL1201862, “PubChem BioAssay data set” (2004).
